One substance from paper PMC8457056, “Remodeling of the Fibrillation Pathway of α‐Synuclein by Interaction with Antimicrobial Peptide LL‐III” (Chemistry (Weinheim an Der Bergstrasse, Germany), 2021) can be followed below.

The subject of one experiment is α‐Syn. Description: phase-contrast light microscopy of α-Syn droplet and fibril formation. In kind it is biochemical, human. As for the experimental part: (§1) Figure 1 A) Phase‐contrast light microscopy snapshots of 100 μM and 200 μM α‐Syn solutions collected 2, 4, 7, 9 and 16 days after incubation of the monomeric α‐Syn. B) Phase‐contrast light microscopy snapshots of a solution of 100 μM α‐Syn in the presence of the reported concentration of antimicrobial peptide LL‐III. Each sample was prepared by mixing the monomeric form of α‐Syn with LL‐III. The pictures were taken after 9 and 16 days of incubation. For the snapshots after 16 days, at each peptide concentration, two different regions of the cover slip were sampled, showing the presence of discrete droplets as well as droplet clusters in solution. C) Phase‐contrast light and fluorescence microscopy snapshots of a 100 μM α‐Syn solution in the presence of 50 μM LL‐III (total peptide concentration, the concentration of the carboxyfluorescein‐labelled peptide was 1 μM). All the experiments were performed at room temperature (25 °C) in 20 mM sodium acetate buffer, pH 5.0. The scale bar is 30 μm.
To reveal if the short antimicrobial peptide LL‐III is able to affect the fibril formation of α‐Syn, we performed a series of microscopy experiments by using 100 μM of α‐Syn and varying the concentration of LL‐III between 50 μM and 500 μM. The samples were prepared by mixing a solution of LL‐III peptide and α‐Syn in the monomeric state and taking pictures after 9 and 16 days. The results are collected in Figure 1B. […] After 9 days, droplets as well as clusters thereof were visible. The size of the clusters depended on the LL‐III concentration. Higher peptide concentrations promoted the association of more droplets. […] To confirm partitioning of the LL‐III peptide in the α‐Syn droplets, complementary fluorescence microscopy experiments were performed using a carboxyfluorescein‐labelled LL‐III peptide.
The lyophilized powders of the labeled and unlabeled LL-III peptide were purchased from GenScript, Germany.
The sequence of the LL-III peptide is NH2-VNWKKIL GKIIKVVK -CONH2. In th e labeled peptide, the fluorophore 6-carboxyfluorescein (FAM) was covalently attached to the N-terminus of the peptide. All the solutions were pre-pared in 20 mM sodium acetate buffer at pH 5.0. Deionized water was used for the buffer and all sample prepara- […]
Expression and purification of α-synuclein
The expression and purification of α-synuclein (α-Syn) was carried out as described before.[1,2] The plasmid was purchased from GenScript. The plasmid pT7- 7 expressing human α-synuclein was transformed into Escherichia coli strain BL21 (DE3). A single colony was picked and inoculated into 100 m l LB medium containing 150 μg/m l ampicillin and grown at 37°C with shaking at 250 rpm until the absorbance at 600 nm reached 0.8. Induction was then carried out by adding 1 mM IPTG (final concentration) and the culture was further grown under similar con-ditions for 3 h. The cells were harvested, resuspended in 0.75 ml of buffer (50 mM Tris-HCl, pH 7.5, 10 mM EDTA and 150 mM NaCl) and frozen at - 80 °C. Tubes containing frozen cells were placed in a boiling water bath for 7 min and the supernatant collected after centrifugation at maximum speed for […]. Streptomycin sulfate (136 μl/ml of supernatant) and glacial acetic acid (228 μl/ml of supernatant) were added and centrifuged for 2 min. Again, t he supernatant was recovered and precipitated with ammonium sulfate (saturated ammonium sulfate at 4°C was used 1:1, v/v, with supernatant). […]

Another experiment concerns α‐Syn droplets. Nature of the experiment: fluorescence microscopy, partitioning of LL-III in α-Syn droplets. The note with it: 100 μM α-Syn, pH 5.0, 25 °C. In kind it is binding, human. Here is the method: as §1, with “The scale bar is 30 μm.” left out
To reveal if the short antimicrobial peptide LL‐III is able to affect the fibril formation of α‐Syn, we performed a series of microscopy experiments by using 100 μM of α‐Syn and varying the concentration of LL‐III between 50 μM and 500 μM. […] To confirm partitioning of the LL‐III peptide in the α‐Syn droplets, complementary fluorescence microscopy experiments were performed using a carboxyfluorescein‐labelled LL‐III peptide. […]

For the substance NH2-VNWKKIL GKIIKVVK -CONH2 [LL‐III], the “inhibition of α-Syn fibril formation” value in the experiment on α‐Syn (100 μM monomeric α-Syn, LL-III 50–500 μM, 9 and 16 days, 20 mM sodium acetate, pH 5.0, 25 °C) is recorded as “LL‐III inhibits formation of the amyloidogenic state of the protein”. In addition, the “inhibition of fibril formation at 50 μM LL-III” value in the experiment with α‐Syn (100 μM α-Syn, 50 μM LL-III, 20 mM sodium acetate, pH 5.0, 25 °C) is “the formation of fibrils was already inhibited”. Besides, the number of droplets result in the experiment on α‐Syn (100 μM α-Syn, 200 μM and 500 μM LL-III, pH 5.0, 25 °C) was “the number of droplets was significantly increased”. In the experiment with α‐Syn (100 μM α-Syn, LL-III 50–500 μM, 16 days, pH 5.0, 25 °C), the “effect on droplet condensate after 16 days” value is recorded as “fostered formation of the droplet condensate”. Moreover, the “decondensation of the droplets” value in the experiment on α‐Syn (conclusion) was “No decondensation of the droplets takes place”. In addition, in the experiment on α‐Syn droplets (50 μM LL-III of which 1 μM carboxyfluorescein-labelled, 20 mM sodium acetate, excitation 488 nm), the “partitioning in α-Syn droplets” value was “most of the LL‐III peptide was localized in the α‐Syn droplets”. Further, the “droplet clusters after 16 days” value in the experiment with α‐Syn droplets (16 days) is “formation of LL‐III‐enriched droplet clusters were observed after 16 days”.
